Experimental data reported in patent US10925282B2, “Enhanced kill of microorganisms” (CONOCOPHILLIPS COMPANY, priority 2017, dated 2021).
Read-outs that look alike come from different tables or passages of the source.

Legend:
[1] = tested on: Barnett sulfate reducing bacteria (SRB) culture
[2] = tested on: freshwater denitrifying culture; conditions: 20 mM; 30-minute exposure; cited from earlier work
[3] = 1 mM nitrite, approximately 24 hours

Q: For O=NO [nitrite], which cATP concentration [1, 3] is on record?
A: below 1000 picograms per mL

Q: And the “reduction in cATP concentrations” value [1, 3]?
A: > 90%

Q: And the “time required to reach a cATP concentration below 1000 picograms per mL” value ([1]; 1 mM nitrite, initial microbial equivalency 1.0×10^7 cells/mL, 30° C.)?
A: Approximately 24 hours

Q: And the “reduction in cATP concentrations” value ([1]; 2 mM nitrite, same time period (approximately 24 hours))?
A: > 99%

Q: With [O]=[W](=[O])([O-])[O-] [tungstate] as the molecule, how does the “reduction of ATP levels” value [2] read?
A: 41%
